Reference: patent US7875634B2, “Cyano anthranilamide insecticides” (E. I. du Pont de Nemours and Company, priority 2003, dated 2011)

Columns and labels:
Type in all cases: in vivo
[1] = test system: cotton melon aphid (Aphis gossypii); test: Test E: control of cotton melon aphid through contact and/or systemic means, spray on cotton; settings: 144 h
From the text: For evaluating control of cotton melon aphid (Aphis gossypii) through contact and/or systemic means, the test unit consisted of a small open container with a 6-7-day-old cotton plant inside. This was pre-infested with 30-40 insects on a piece of leaf according to the cut-leaf method described for Test C, and the soil of the test unit was covered with a layer of sand.
Test compounds were formulated and sprayed at 250 ppm as described for Test D. The applications were replicated three times. After spraying, the test units were maintained in a growth chamber and then visually rated as described for Test D.

[2] = test system: potato leafhopper (Empoasca fabae); test: Test 1 (I): xylem movement from soil application, potato leafhopper mortality (bean); settings: for % PLH M (potato leafhopper mortality): 1000 ppm, 1 mL to soil at base of bean plant, infested after 2 days, held 5 additional days
From the text: (§1) For evaluating movement of compounds in plants and control of green peach aphid (Myzus persicae) and potato leafhopper (Empoasca fabae) after xylem movement of compound from soil application up through roots into foliage, the test unit consisted of a small open container with a 12-15-day-old radish plant (for green peach aphid test) or 5-6-day-old Longio bean plant (for potato leafhopper test).
(§2) Test compounds were formulated using a solution containing 10% acetone, 90% water and 600 ppm X-77® Spreader Lo-Foam Formula non-ionic surfactant containing alkylarylpolyoxyethylene, free fatty acids, glycols and isopropanol (Loveland Industries, Inc.). The formulated compounds were applied in 1 mL of solution by pipet to the soil at the base of the plant. All experimental compounds in this screen were applied at 1000 ppm, and the tests were replicated three times. After applying the formulated test compounds, each test unit was allowed to dry for 1 h. The soil of each test unit was covered with a layer of sand and then a black, screened cap was placed on top. The test units were held in a growth chamber at about 20° C. and 50-70% relative humidity.
(§3) After 2 days, the plants were then infested with 20-30 aphids (radish) or 20 leafhoppers (bean) and held in the growth chamber for 5 additional days. Each test unit was then visually assessed for mortality of the insects, which had contacted and fed on the untreated plant foliage.

[3] = test system: potato leafhopper (Empoasca fabae Harris); test: Test D: control of potato leafhopper through contact and/or systemic means, spray on bean plant; settings: 144 h
Procedure: For evaluating control of potato leafhopper (Empoasca fabae Harris) through contact and/or systemic means, the test unit consisted of a small open container with a 5-6 day old Longio bean plant (primary leaves emerged) inside. White sand was added to the top of the soil and one of the primary leaves was excised prior to application. Test compounds were formulated and sprayed at 250 ppm and replicated three times as described for Test C. After spraying, the test units were allowed to dry for 1 hour before they were post-infested with 5 potato leafhoppers (18 to 21 day old adults). A black, screened cap was placed on the top of the cylinder. The test units were held for 6 days in a growth chamber at 19-21° C. and 50-70% relative humidity. Each test unit was then visually assessed for insect mortality.

[4] = test system: corn planthopper (Peregrinus maidis); test: Test F: control of corn planthopper through contact and/or systemic means, spray on corn; settings: 144 h
Procedure: For evaluating control of corn planthopper (Peregrinus maidis) through contact and/or systemic means, the test unit consisted of a small open container with a 3-4 day old corn (maize) plant (spike) inside. White sand was added to the top of the soil prior to application. Test compounds were formulated and sprayed at 250 ppm and replicated three times as described for Test C. After spraying, the test units were allowed to dry for 1 hour before they were post-infested with 10-20 corn planthoppers (18- to 20-day old nymphs) by sprinkling them onto the sand with a salt shaker. A black, screened cap was placed on the top of the cylinder. The test units were held for 6 days in a growth chamber at 19-21° C. and 50-70% relative humidity. Each test unit was then visually assessed for insect mortality.

[5] = test system: green peach aphid (Myzus persicae); test: Test H: foliar movement of compound through the plant, green peach aphid mortality (radish); settings: applied at 1000 ppm, 20 microliters by pipet to two leaves of radish plant; infested after 2 days, held 8 additional days; insects fed on untreated plant tissues
From the text: (§4) For evaluating movement of compounds in plants and control of green peach aphid (Myzus persicae) and potato leafhopper (Empoasca fabae) after foliar movement of compound through the plant, the test unit consisted of a small open container with a 12-15-day-old radish plant (for green peach aphid test) or 5-6 day old Longio bean plant (for potato leafhopper test).
as §2, with “20 microliters” for “1 mL of solution”, “two larger photosynthetically active leaves.” for “the soil at the base of the plant.”, “the” for “each test unit was allowed to dry for 1 h. The”, “sand and each test unit was allowed to dry for 1 hr” for “sand”
(§5) After 2 days, the treated leaves were covered on all sides with a fine plastic mesh, but with the leaf petiole intact and still attached to the plant to allow normal vascular movement and photosynthesis. The plants were then infested with 20-30 aphids (radish) or 20 leafhoppers (bean) and held in the growth chamber for 8 additional days. Each test unit was then visually assessed for mortality of the insects, which had contacted and fed on the untreated plant tissues.

[6] = test system: green peach aphid (Myzus persicae); test: Test C: control of green peach aphid through contact and/or systemic means, spray on radish; settings: 144 h
From the text: For evaluating control of green peach aphid (Myzus persicae) through contact and/or systemic means, the test unit consisted of a small open container with a 12-15-day-old radish plant inside. This was pre-infested by placing on a leaf of the test plant 30-40 aphids on a piece of leaf excised from a culture plant (cut-leaf method). The larvae moved onto the test plant as the leaf piece desiccated. After pre-infestation, the soil of the test unit was covered with a layer of sand.
Test compounds were formulated using a solution containing 10% acetone, 90% water and 300 ppm X-77® Spreader Lo-Foam Formula non-ionic surfactant containing alkylarylpolyoxyethylene, free fatty acids, glycols and isopropanol (Loveland Industries, Inc.). The formulated compounds were applied in 1 mL of liquid through a SUJ2 atomizer nozzle with ⅛ JJ custom body (Spraying Systems Co.) positioned 1.27 cm (0.5 inches) above the top of each test unit. All experimental compounds in this screen were sprayed at 250 ppm, replicated three times. After spraying of the formulated test compound, each test unit was allowed to dry for 1 hour and then a black, screened cap was placed on top. The test units were held for 6 days in a growth chamber at 19-21° C. and 50-70% relative humidity. Each test unit was then visually assessed for insect mortality.

[7] = test system: green peach aphid (Myzus persicae); test: Test 1 (I): xylem movement from soil application, green peach aphid mortality (radish); settings: for % GPA M (green peach aphid mortality): 1000 ppm, 1 mL to soil at base of radish plant, infested after 2 days, held 5 additional days
From the text: as §1, §2, §3

[8] = test system: potato leafhopper (Empoasca fabae); test: Test H: foliar movement of compound through the plant, potato leafhopper mortality (bean); settings: applied at 1000 ppm, 20 microliters by pipet to two leaves of bean plant; infested after 2 days, held 8 additional days; insects fed on untreated plant tissues
From the text: as §4
as §2, with “20 microliters” for “1 mL of solution”, “two larger photosynthetically active leaves.” for “the soil at the base of the plant.”, “the” for “each test unit was allowed to dry for 1 h. The”, “sand and each test unit was allowed to dry for 1 hr” for “sand”
as §5

Structure (SMILES) | % GPA M (green peach aphid mortality) [5] [%] | % PLH M (potato leafhopper mortality) [8] [%] | % PLH M (potato leafhopper mortality) [2] [%] | % GPA M (green peach aphid mortality) [7] [%] | also measured
Cc1cc(C#N)cc(C(N)=O)c1NC(=O)c1cc(C(F)(F)F)nn1-c1ncccc1Cl [Compound 1] | 87 | 58 |  |  | mortality at 250 ppm [1]: ≥ 80%; mortality at 1000 ppm ([2]; Empoasca fabae, soil, read-out: % PLH M (potato leafhopper mortality)): 100%; mortality at 250 ppm [3]: ≥ 80%; mortality at 250 ppm [4]: ≥ 80%; mortality at 250 ppm [6]: ≥ 80%; mortality at 1000 ppm ([7]; Myzus persicae, soil, read-out: % GPA M (green peach aphid mortality)): 64%
CNC(=O)c1cc(C#N)cc(C)c1NC(=O)c1cc(C(F)(F)F)nn1-c1ncccc1Cl [Compound 2] |  |  | 56 | 64 | 
CNC(=O)c1cc(C#N)cc(C)c1NC(=O)c1cc(Cl)nn1-c1ncccc1Cl [Compound 3] | 81 | 96 |  |  | 
Cc1cc(C#N)cc(C(N)=O)c1NC(=O)c1cc(Cl)nn1-c1ncccc1Cl [Compound 4] | 78 | 93 |  |  | 
CNC(=O)c1cc(C#N)cc(C)c1NC(=O)c1cc(Br)nn1-c1ncccc1Cl [Compound 5] | 94 | 96 | 95 | 40 | 
Cc1cc(C#N)cc(C(N)=O)c1NC(=O)c1cc(Br)nn1-c1ncccc1Cl [Compound 6] | 100 | 77 | 100 | 59 | 
Cc1cc(C#N)cc(C(=O)NCC#N)c1NC(=O)c1cc(Cl)nn1-c1ncccc1Cl [Compound 26] | 67 | 73 |  |  | 
Cc1cc(C#N)cc(C(=O)NCC#N)c1NC(=O)c1cc(Br)nn1-c1ncccc1Cl [Compound 27] | 57 | 13 |  |  | 
